Experiments:
Format in all cases: cell-based
NR2F6 = target: T1, NR2F6 (Homo sapiens, UniProt P10588); assay: NR2F6 agonist screening, Firefly signal cmpd/DMSO; details: clone F4
T1 construct: expressed in transfected cells; also transient transfection
T1 sequence (P10588 1-404): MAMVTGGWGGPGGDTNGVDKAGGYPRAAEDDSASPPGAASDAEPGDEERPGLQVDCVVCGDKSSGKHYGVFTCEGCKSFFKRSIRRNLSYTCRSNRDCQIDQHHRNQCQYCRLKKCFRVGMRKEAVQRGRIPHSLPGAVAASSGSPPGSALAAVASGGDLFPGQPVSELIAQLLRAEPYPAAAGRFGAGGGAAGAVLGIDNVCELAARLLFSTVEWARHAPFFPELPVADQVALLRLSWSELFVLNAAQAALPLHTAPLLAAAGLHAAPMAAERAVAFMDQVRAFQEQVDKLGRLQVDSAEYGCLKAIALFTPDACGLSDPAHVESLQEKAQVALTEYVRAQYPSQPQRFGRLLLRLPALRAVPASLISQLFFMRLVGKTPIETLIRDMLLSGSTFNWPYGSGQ

ERα [1] = target: T2, ERα (Homo sapiens, UniProt P03372); assay: Counterscreening, Firefly signal with ERα transient transfection (Firefly_ERa); details: 10 uM
T2 construct: expressed in transfected cells
T2 sequence (P03372 1-595): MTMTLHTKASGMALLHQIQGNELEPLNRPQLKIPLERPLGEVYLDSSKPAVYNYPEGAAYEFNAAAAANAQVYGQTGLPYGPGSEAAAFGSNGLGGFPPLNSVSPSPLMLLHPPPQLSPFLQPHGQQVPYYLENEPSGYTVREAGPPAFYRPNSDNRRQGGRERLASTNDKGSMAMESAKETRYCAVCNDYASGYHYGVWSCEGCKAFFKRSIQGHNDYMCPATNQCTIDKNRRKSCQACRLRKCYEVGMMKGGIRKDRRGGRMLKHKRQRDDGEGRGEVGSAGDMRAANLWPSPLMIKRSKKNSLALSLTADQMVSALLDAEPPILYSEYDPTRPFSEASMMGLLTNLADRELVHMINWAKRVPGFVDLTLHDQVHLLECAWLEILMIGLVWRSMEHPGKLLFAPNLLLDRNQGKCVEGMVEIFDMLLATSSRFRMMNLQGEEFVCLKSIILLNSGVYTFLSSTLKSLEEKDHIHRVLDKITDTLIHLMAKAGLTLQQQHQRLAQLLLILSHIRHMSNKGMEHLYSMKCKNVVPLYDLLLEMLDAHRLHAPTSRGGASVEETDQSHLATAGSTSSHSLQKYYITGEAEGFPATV
Procedure: The methodology for screening candidate compounds as NR2F6 agonists was as follows: For primary screening, hit criteria was ACT %>DMSO control+5*SD (DSO control) at 10 μM, or any compound with S/B>2. For rescreening, hit criteria was ACT %>DMSO control+3*SD (DSO control) in each replicate at 10 μM. For counterscreening, hit criteria was mean ACT<DMSO control+3*SD (DMSO control) with ERα transient transfection in duplicate at 10 μM.

Renilla = Renilla signal in NR2F6 agonist screening, cmpd/DMSO; details: clone F4; for fold induction at 2 µM / fold induction at 10 µM / fold induction at 40 µM: Renilla, read-out: Renilla F4, cmpd/DMSO (mean)
Renilla_ERa = assay: Renilla signal in ERα counterscreen (Renilla_ERa); details: for fold induction at 2 µM / fold induction at 10 µM / fold induction at 40 µM: read-out: Renilla ERalpha transient, cmpd/DMSO (mean)
ERα [2] = target: T2, ERα; assay: Counterscreening, Firefly signal with ERα transient transfection (Firefly_ERa)

Row | Structure (SMILES) | Firefly F4, cmpd/DMSO (mean) (NR2F6; 2 uM) | Firefly F4, cmpd/DMSO (mean) (NR2F6; 10 uM) | Firefly F4, cmpd/DMSO (mean) (NR2F6; 40 uM) | Firefly ERalpha transient, cmpd/DMSO (mean) (ERα [1]) | Renilla F4, cmpd/DMSO (mean) (Renilla; 2 uM) | Renilla F4, cmpd/DMSO (mean) (Renilla; 10 uM) | Renilla F4, cmpd/DMSO (mean) (Renilla; 40 uM) | Renilla ERalpha transient, cmpd/DMSO (mean) (Renilla_ERa; 2 uM) | Renilla ERalpha transient, cmpd/DMSO (mean) (Renilla_ERa; 10 uM) | Renilla ERalpha transient, cmpd/DMSO (mean) (Renilla_ERa; 40 uM) | Firefly ERalpha transient, cmpd/DMSO (mean) (ERα [2]; 2 uM) | Firefly ERalpha transient, cmpd/DMSO (mean) (ERα [2]; 40 uM) | fold induction at 2 µM (Renilla; 2 uM) | fold induction at 10 µM (Renilla; 10 uM) | fold induction at 40 µM (Renilla; 40 uM) | fold induction at 2 µM (Renilla_ERa; 2 uM) | fold induction at 10 µM (Renilla_ERa; 10 uM) | fold induction at 40 µM (Renilla_ERa; 40 uM)
1 | CC1CCN(c2nc(N3CCC(C)CC3)nc(N3CCn4c(cccc4=O)C3)n2)CC1 [Compound 36] | 1.3 | 0.6 | 0.9 | 0.8 | 1.2 | 0.8 | 0.5 | 1.2 | 1.1 | 0.3 | 1.1 | 0.4 | – | – | – | – | – | –
2 | CCCNc1nc(N2CCOCC2)nc(N2CC3CC(C2)c2cccc(=O)n2C3)n1 (stereo not drawn) [Compound 37] | 1.3 | 1.1 | 1.3 | 1.4 | – | – | – | – | – | – | 1.1 | 1.2 | 0.9 | 1.2 | 1.3 | 1.1 | 1.1 | 1.1
3 | COc1nc(NCCC2=CCCCC2)nc(N2CC3CC(C2)c2cccc(=O)n2C3)n1 (stereo not drawn) [Compound 38] | 1.2 | 0.8 | 0.7 | 0.9 | – | – | – | – | – | – | 0.8 | 0.5 | 1.1 | 1.1 | 1.3 | 1.2 | 1.1 | 1.1
4 | O=c1cccc2n1CC1CC2CN(c2nc(NCCC3=CCCCC3)nc(N3CCOCC3)n2)C1 (stereo not drawn) [Compound 39] | 1.1 | 0.9 | 0.9 | 0.6 | – | – | – | – | – | – | 0.9 | 0.9 | 1.2 | 1.4 | 1 | 1.1 | 1.2 | 1.2
5 | CCCCCCNc1nc(OCC)nc(N2CCn3c(cccc3=O)C2)n1 [Compound 40] | 0.9 | 1.0 | 0.8 | 1.0 | 1.1 | 1.3 | 1.0 | 1.2 | 1.2 | 1.1 | 1.0 | 0.7 | – | – | – | – | – | –
6 | CCCCCCNc1nc(OC)nc(N2CCn3c(cccc3=O)C2)n1 [Compound 41] | 0.8 | 0.9 | 0.9 | 1.5 | 1.1 | 1.1 | 1.1 | 1.2 | 1.2 | 1.1 | 1.5 | 1.4 | – | – | – | – | – | –
7 | O=c1cccc2n1CCN(c1nc(NCC3CCCO3)nc(N3CCCC3)n1)C2 (stereo not drawn) [Compound 42] | 1.6 | 0.8 | 0.9 | 1.0 | 0.7 | 0.8 | 1.1 | 0.9 | 1.0 | 1.0 | 2.3 | 1.0 | – | – | – | – | – | –
8 | CC1CCN(c2nc(NCCN3CCOCC3)nc(N3CC4CC(C3)c3cccc(=O)n3C4)n2)CC1 (stereo not drawn) [Compound 43] | 1.0 | 0.9 | 0.8 | 1.4 | – | – | – | – | – | – | 1.4 | 1.2 | 1 | 1.1 | 1.1 | 1.1 | 1 | 1
9 | O=C(O)c1ccc(-n2ncc(Cl)c(Cl)c2=O)cc1 [Compound 44] | 1.3 | 1.5 | 0.7 | 1.3 | – | – | – | – | – | – | 1.5 | 0.5 | 1.1 | 1.1 | 0.3 | 1.3 | 1.2 | 0.3
10 | O=c1c(Cl)c(Cl)cnn1-c1ccccc1 [Compound 45] | 3.2 | 1.2 | 0.7 | 1.6 | – | – | – | – | – | – | 1.8 | 0.6 | 1.6 | 0.8 | 0.2 | 1.6 | 0.8 | 0.2

Reference: US11377442B2, “Small molecule agonists and antagonists of NR2F6 activity” (ZANDER THERAPEUTICS, INC., priority 2016, dated 2022)
